US8629116B2, “Method for inducing a TRIF-bias” (priority 2008, dated 2014)

Experiments:
[1] = Rabbit toxicology study by IM route; type: in vivo; conditions: for gross pathology: white discoloration of muscle along needle track and at site of injection: low dose (5 μg); for overall impression of toxicity: n=3 rabbits/group; for hematology: granulocytosis: day 9 (2 days post-2°), resolves by day 21
Method: Groups of three rabbits (NZW—Western Oregon Rabbit Company, Philomath, Oreg.) are vaccinated with 1 mL diluted AGP, or MPL control, IM on days 0, 7 and 14. Two doses of AGP are evaluated. All animals are monitored for body weight, temperature, clinical condition and draize score. Animals are sacrificed one week post final administration. Blood is collected pretreatment, two days after the 2nd vaccination and upon sacrifice for hematology and clinical chemistry. Histopathology of injection sites and major organs are conducted according to standard practices. All animals are used in accordance with guidelines established by the Public Health Service and the Institutional Animal Care and Use Committee at GlaxoSmithKline Biologicals, Hamilton, Mont.
Toxicity of CRX-527, 524, 547 and compound 1 is evaluated in rabbits receiving AGP only by the intramuscular (IM) route. Groups of three rabbits are vaccinated with 1 mL diluted AGP, or MPL control, IM on days 0, 7 and 14. Two doses of AGP are evaluated: high (25 μg) and low (5 μg). All animals are monitored for body weight, temperature, clinical condition and draize score. Animals are sacrificed one week post final administration. Blood is collected pretreatment, two days after the 2nd vaccination and upon sacrifice for hematology and clinical chemistry. Histopathology of injection sites and major organs are conducted.

RAW264.7 cells = test: Western blot of signaling proteins in RAW264.7 cells; type: cell-based, mouse; conditions: 10 ng/ml, PMA pre-activated
Method: For Western blot and phospho-Western blot protein analysis, cells are lysed with Cell Lysis Buffer (Cell Signaling Technology, Danvers, Mass.) with Protease Inhibitor Cocktail (Sigma, St. Louis Mo.). Western Blot on PVDF membranes (Millipore) is performed using standard methods. Bands are detected with ECL Advance Western Blot kit (GE Healthcare, Piscataway, N.J.). Secondary Anti-Rabbit HRP antibody is obtainable from KPL, (Gaithersburg, Md.). Anti-βactin, anti-IRF-3, anti-phospho-IRF-3 (Ser396) and anti-IRAK1 antibodies are obtained from Cell Signaling Technology (Danvers, Mass.).
To determine whether the phosphorylation (activation) status of key protein signaling molecules in the TRIF versus MyD88 in RAW264.7 cells, cells are pre-activated with 10^−7M PMA) then stimulated with 10 ng/ml of the AGPs. Cellular lysates are prepared at 0, 15 m, 30 m, 45 m, 60 m, 120 m, 240 m, Similar to results in MM6 cells, IκBα degradation is faster after stimulation with CRX-527 compared to CRX-547 (FIG. 29). […] The increased reponsiveness of these cello could be due to the pre-activation with PMA, known to increase the maturation state of monocytic cells. CRX-547 induces expression of Phospho-IκBα and Phospho-IRF3. IRF3 is induced through TRIF mediated signaling. The amount of total IRF3 protein is also higher in the cells treated with CRX-547.

MonoMac6 (MM6) cells = test: NFκB nuclear translocation in MonoMac6 cells (ImageStream); type: cell-based, human
Description: MonoMac6 Cells in exponential growth are stimulated with increasing concentrations of AGP diluted in 2% glycerol vehicle for the indicated time points. Immediately fixed cells (in 2% paraformalin overnight) are stained with the primary antibodies, anti-NFκB(p65) (SantaCruz Biotechnology, SantaCruz, Calif.) and anti-IRF3 (BD Biosciences, San Jose, Calif.), in permeabilization buffer (PBS, 2% FBS, 0.1% TritonX) followed by secondary antibodies, anti-Rabbit FITC (Jackson Labs, Bar Harbor, Me.), anti-mouse PE (BD Biosciences, San Jose, Calif.). Similarity scores of signaling protein localization with the nuclear stain DRAQ5 (Alexis Biochemicals (San Diego, Calif.) are used for ImageStream analysis of Nuclear Translocation as previously described {George, 2006 32669/id}. A minimum of 3000 cells are collected and analyzed for each condition tested.
Interferon […] Factor-3 (IRF-3) is a transcription factor activated downstream of the TRIF-dependent TLR4 signaling pathway (Yamamoto et al. 640-43). IRF-3 phosphorylation leads to IRF-3 dimerization, nuclear translocation, and induction of transcription of Type I interferon (IFNβ) and interferon-inducible genes (Honda, Takaoka, and Taniguchi 349-60; Tailor, Tamura, and Ozato 134-40). The ImageStream is capable of measuring nuclear translocation of both NFκB and IRF-3 by quantification of co-localization between the labeled transcription factors and the nucleus of cells stained with a nucleus-specific dye ([…]) (Beum et al. 90-99; George et al. 117-29; Arechiga et al. 7800-04).
In order to compare signaling initiated by CRX-527 and CRX-547, the induction of nuclear translocation of NFκB and IRF-3 by CRX-527 and CRX-547 treatment is compared in the human monocytic cell line, MonoMac6 (MM6) using ImageStream analysis.
To determine whether CRX-547 is able to antagonize NFκB nuclear translocation in cells treated with constant CRX-527, MM6 cells are stimulated for 20 minutes, 35 minutes and 2 hrs with increasing doses of CRX-547 (FIG. 12). When AGPs are added at the same time, CRX-547 antagonized NFκB nuclear translocation induced by CRX-527 at the highest doses. When CRX-547 is constant and spiked with CRX-527 into the assay, CRX-527 stimulation is able to overcome the maximal effect of NFκB nuclear translocation with CRX-547 alone.

human TLR4, MD-2, CD14 = molecular target: T1, human TLR4, MD-2, CD14 (Homo sapiens, UniProt O00206+Q9Y6Y9); test: NF-κB reporter activity in HEK293 cells transfected with human TLR4/MD-2/CD14; type: cell-based; conditions: HEK293 huTLR4/huMD-2/huCD14, NFκB reporter plasmid
T1 construct: host or cells: HEK293-hTLR4/hMD2/hCD14
T1 sequence (O00206 24-839): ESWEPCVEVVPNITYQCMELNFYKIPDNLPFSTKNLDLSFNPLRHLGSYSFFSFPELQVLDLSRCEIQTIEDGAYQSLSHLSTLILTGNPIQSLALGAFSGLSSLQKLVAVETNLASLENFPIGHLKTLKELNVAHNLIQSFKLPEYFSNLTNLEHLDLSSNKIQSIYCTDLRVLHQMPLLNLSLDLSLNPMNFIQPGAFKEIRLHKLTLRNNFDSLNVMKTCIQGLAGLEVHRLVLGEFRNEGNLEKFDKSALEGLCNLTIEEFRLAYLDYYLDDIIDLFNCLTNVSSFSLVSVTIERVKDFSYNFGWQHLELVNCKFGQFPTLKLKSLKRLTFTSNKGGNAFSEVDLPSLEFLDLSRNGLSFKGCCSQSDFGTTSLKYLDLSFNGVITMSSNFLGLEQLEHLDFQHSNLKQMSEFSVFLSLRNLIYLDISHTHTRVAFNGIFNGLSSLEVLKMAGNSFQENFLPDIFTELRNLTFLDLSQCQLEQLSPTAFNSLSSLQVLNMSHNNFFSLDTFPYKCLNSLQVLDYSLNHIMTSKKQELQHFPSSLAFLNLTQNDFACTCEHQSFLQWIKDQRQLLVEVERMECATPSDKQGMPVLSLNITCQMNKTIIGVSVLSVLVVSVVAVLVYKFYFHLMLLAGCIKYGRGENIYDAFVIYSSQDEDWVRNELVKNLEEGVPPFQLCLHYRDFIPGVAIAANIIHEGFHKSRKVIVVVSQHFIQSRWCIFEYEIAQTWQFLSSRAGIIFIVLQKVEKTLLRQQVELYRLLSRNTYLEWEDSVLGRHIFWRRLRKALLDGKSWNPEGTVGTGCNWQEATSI
T1 sequence (Q9Y6Y9 19-160): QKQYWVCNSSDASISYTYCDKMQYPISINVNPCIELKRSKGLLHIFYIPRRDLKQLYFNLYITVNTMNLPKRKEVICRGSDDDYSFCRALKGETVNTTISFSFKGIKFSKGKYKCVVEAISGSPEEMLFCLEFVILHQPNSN
Method: HEK293-hTLR4/hMD2/hCD14 cells are seeded in 12-well plates (4×10^5 cells/well) and are cultured until 40-60% confluent (2-3 days). The cells are transfected for 24 hours with 100 ng of NF-κB reporter construct expressing secreted human embryonic alkaline phosphatase under the control of an engineered ELAM promoter with five NF-κB sites (pNiFty2-SEA-InvivoGen; San Diego, Calif.) and a transfection control plasmid constitutively expressing a thymidine kinase promoter driven luciferase (Promega). […] After transfection, cells are stimulated for 14 h with TLR4 agonists, and the cleared supernatant is assayed for SEAP activity (SEAP Reporter Assay Kit-InvivoGen) to quantify NF-κB activation and luciferase activity (Promega) to normalize for transfection efficiency following supplied protocols.

Structure (SMILES)	injection site histopathology (myositis) ([1]; low dose)	gross pathology: white discoloration of muscle along needle track and at site of injection [1]	overall impression of toxicity [1]	IRF3 phosphorylation (RAW264.7 cells; performed once)	IκBα phosphorylation (RAW264.7 cells; performed once)	amount of total IRF3 protein (RAW264.7 cells; performed once)	effect on NFκB nuclear translocation induced by CRX-527 (MonoMac6 (MM6) cells; MM6, AGPs added at the same time, highest doses of CRX-547)	NFκB nuclear translocation, threshold never exceeded (MonoMac6 (MM6) cells; MM6 cells, 5-120 minutes)	NF-κB promoter/reporter activation (human TLR4, MD-2, CD14)	injection site histopathology (myositis) ([1]; high dose)	hematology: granulocytosis ([1]; high dose)	hematology: granulocytosis ([1]; low dose)	IκBα degradation (RAW264.7 cells; CRX-527 compared to CRX-547)	earliest NFκB nuclear translocation post-stimulation (MonoMac6 (MM6) cells; MM6 cells) [min]	NFκB nuclear translocation (MonoMac6 (MM6) cells; MM6 cells, by thirty minutes) [%]
CCCCCCCCCCCC(CC(=O)NC(COC1OC(CO)C(OP(=O)(O)O)C(OC(=O)CC(CCCCCCCCCCC)OC(=O)CCCCCCCCC)C1NC(=O)CC(CCCCCCCCCCC)OC(=O)CCCCCCCCC)C(=O)O)OC(=O)CCCCCCCCC.CCN(CC)CC (stereo not drawn) [CRX-547]	no muscle pathology	not	minimally toxic	higher degree	higher degree	higher	antagonized	around 50%	less NFκB reporter activity						
CCCCCCCCCCCC(CC(=O)NC(COC1OC(CO)C(OP(=O)(O)O)C(OC(=O)CC(CCCCCCCCCCC)OC(=O)CCCCCCCCC)C1NC(=O)CC(CCCCCCCCCCC)OC(=O)CCCCCCCCC)C(=O)O)OC(=O)CCCCCCCCC.CCN(CC)CC (stereo not drawn) [CRX-527]		seen	mildly toxic						significantly higher activation	most consistent and greatest	trend of granulocytosis	trend of granulocytosis	faster	≤ 5	~100
